In PubChem BioAssay (NCI):
“And” between values parts separate entries of the source, which are not always exact repeats. Identical values can stand only once.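 The compound was tested at five concentrations on cells cultured in 96-well plates, with a 48-hour exposure period. Abbreviation: GI50, concentration required for 50% inhibition of growth. TGI: concentration producing complete growth inhibition.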 Where a SMILES comes first, the peptide text is derived from it. [ ]: non-standard residue; d: D form. The star is where a group is joined. Bn2Val = CC(C)[C@@H](C(=O)*)N(Cc1ccccc1)Cc1ccccc1; NH(3,4-diMeO-benzyl) = COc1ccc(CN*)cc1OC; NMeV = CN[C@H](C(=O)O)C(C)C; dNMeA = CN[C@H](C)C(=O)O

Legend:
Experiment in all cases: NCI-60 cell line screen, 48 h
UO-31 renal = test system: UO-31 renal
NCI-H522 lung = test system: NCI-H522 lung
UACC-62 melanoma = test system: UACC-62 melanoma
HCT-15 colon = test system: HCT-15 colon
EKVX NSCLC = test system: EKVX NSCLC
OVCAR-3 ovarian = test system: OVCAR-3 ovarian
NCI-H460 lung = test system: NCI-H460 lung
SN12C renal = test system: SN12C renal
MOLT-4 leukemia = test system: MOLT-4 leukemia
K-562 leukemia = test system: K-562 leukemia

Structure (SMILES)	GI50 (UO-31 renal)	TGI (UO-31 renal)	GI50 (NCI-H522 lung)	TGI (NCI-H522 lung)	GI50 (UACC-62 melanoma)	TGI (UACC-62 melanoma)	GI50 (HCT-15 colon)	TGI (HCT-15 colon)	GI50 (EKVX NSCLC)	TGI (EKVX NSCLC)	GI50 (OVCAR-3 ovarian)	TGI (OVCAR-3 ovarian)	GI50 (NCI-H460 lung)	TGI (NCI-H460 lung)	GI50 (SN12C renal)	TGI (SN12C renal)	GI50 (MOLT-4 leukemia)	TGI (MOLT-4 leukemia)	GI50 (K-562 leukemia)	TGI (K-562 leukemia)
CC1=C2[C@@H](CC1)[C@]1(C)O[C@@](C(C)C)(C[C@H]1OC(=O)[C@H](C)O)[C@H]2OC(=O)/C=C/c1ccccc1	1.01 µM	18.7 µM	13.3 µM	29.1 µM	12.2 µM	27.4 µM	11.2 µM	25.4 µM	6.19 µM	21.7 µM	12.5 µM	26.1 µM	14.8 µM	36.7 µM	1.47 µM	24.6 µM	10.7 µM	32 µM	12.5 µM	49.8 µM
C[C@@H]1Cc2c([nH]c3ccccc23)[C@@H](c2c(F)cc(/C=C/C(=O)O)cc2F)N1CC(C)(C)F	8.1 µM	21.6 µM	14 µM	33.6 µM	3.9 µM	17.3 µM	8.14 µM	24.3 µM	12.7 µM	39.2 µM	13.8 µM	29.1 µM	11.5 µM	27.8 µM	11.9 µM	38.3 µM	11.2 µM	34.9 µM	13.6 µM	46.1 µM
Cc1c(Cl)cccc1Nc1ncccc1C(=O)O	55.7 µM	> 100 µM	81.2 µM	> 100 µM	48.3 µM	> 100 µM	38.1 µM	> 100 µM	34.1 µM	> 100 µM	39.8 µM	> 100 µM	53 µM	> 100 µM	> 100 µM	> 100 µM	> 100 µM	> 100 µM	62.7 µM	> 100 µM
O=C1Oc2cc3c(c4cccc1c24)OCN(c1ccc(Cl)cc1)C3		32.2 µM		30.8 µM		> 75 µM		> 64.7 µM		> 100 µM		> 57.4 µM		> 100 µM		29.1 µM		51.4 µM		53.2 µM
CCOC(=O)CCCO		> 100 µM		> 100 µM		> 100 µM		> 100 µM		> 100 µM		> 100 µM		> 100 µM		> 100 µM		> 100 µM		> 100 µM
COc1cc2c(NCCCCCCO[N+](=O)[O-])ncnc2c(OC)c1OC		21.2 µM		52.9 µM		43.6 µM		72.7 µM		68.3 µM		> 78 µM		69.8 µM		> 71.5 µM		> 61.9 µM		> 100 µM
COc1ccc(N=Cc2cc(OC)c(OC)c(OC)c2)cc1		> 100 µM	> 100 µM	> 100 µM		> 100 µM		> 100 µM		> 100 µM	> 100 µM	> 100 µM		> 100 µM		> 100 µM		> 100 µM		> 100 µM
C#CC(C)(C)Oc1cc(O)c2c(=O)c3ccccc3n(C)c2c1		> 100 µM		> 100 µM		> 100 µM		> 100 µM		> 100 µM		> 100 µM		> 100 µM		> 100 µM		> 100 µM		> 100 µM
O=[n+]1c(CBr)c(CBr)n([O-])c2ccccc21	1.44 µM	3 µM	1.74 µM	3.17 µM	14.1 µM	27.4 µM	1.82 µM	3.48 µM	15.3 µM	29 µM	1.79 µM	3.25 µM	16.9 µM	34.6 µM	11 µM	24.3 µM	3.62 µM	14.7 µM	3.46 µM	17.2 µM
O=C1/C(=C/c2ccccc2)CN(C(=O)Oc2ccc(Cl)cc2)C/C1=C\c1ccccc1		15.5 µM		5.51 µM		5.42 µM		2.73 µM		26.7 µM		10.6 µM		9.84 µM		3.88 µM		8.63 µM		5.79 µM
CC(=O)OCCc1cccnc1/C=N/O		> 100 µM		> 100 µM		> 100 µM		> 100 µM		> 100 µM		> 100 µM		> 100 µM		> 100 µM		> 100 µM		> 100 µM
Cc1cc(C)nc(NS(=O)(=O)c2ccc(NC(=O)c3cccc4c(=O)c5ccccc5[nH]c34)cc2)n1		45.7 µM		27.6 µM		44.5 µM		46.3 µM		86.3 µM		37.6 µM		36.1 µM		32.8 µM		> 100 µM		90.3 µM
O=C(O)c1cc(S(=O)(=O)N=NC=C2c3ccccc3N(O)c3ccccc32)ccc1O		49.5 µM		23.8 µM		22 µM		21.2 µM		> 100 µM		> 100 µM		33.5 µM		> 100 µM		45.1 µM		> 100 µM
CCN1CCN(c2nc(NCCNc3ccnc4cc(Cl)ccc34)c3ccccc3n2)CC1	1.53 µM	3.3 µM	2.14 µM	4.54 µM	1.41 µM	2.94 µM	1.52 µM	5.25 µM	2.62 µM	11.6 µM	1.87 µM	4.2 µM	1.91 µM	5.33 µM	1.21 µM	2.88 µM	2.13 µM	7.17 µM	1.03 µM	3.89 µM
COc1ccc(CNC(=O)[C@@H](C)N(C)C(=O)[C@@H]2CCCN2C(=O)[C@H](C(C)C)N(C)C(=O)[C@@H](NC(=O)[C@H](C(C)C)N(Cc2ccccc2)Cc2ccccc2)C(C)C)cc1OC (Bn2Val-V[NMeV]P[dNMeA]-{NH(3,4-diMeO-benzyl)})		> 100 µM	9.05 µM	10.7 µM and 45.1 µM	13.5 µM	14 µM and 27.2 µM	5.98 µM	21.5 µM and 28.8 µM	10.4 µM	50 µM and 49.1 µM	10 µM	14.6 µM and 24.7 µM	8.21 µM	50 µM and 37.9 µM	10 µM	17.2 µM and 22.2 µM	0.475 µM	23.9 µM and 11.7 µM	6.52 µM	50 µM and > 100 µM
OC(c1cccc(C(F)(F)F)c1)c1cnccc1NC1CCCCCC1 (stereo unspecified)	1.35 µM	2.97 µM	1.65 µM	3.56 µM	1.5 µM	3.06 µM	1.81 µM	3.54 µM	1.98 µM	4.68 µM	2.35 µM	6.23 µM	1.84 µM	3.57 µM	1.87 µM	4.08 µM	2.3 µM	6.19 µM	1.57 µM	4.51 µM
